Test results: patent US12691070B2, “Cationic lipids and preparation method thereof” (RiboX Therapeutics HK Limited, priority 2023, dated 2026)

Legend:
[1] = system: Hep G2 cells; test: In vitro expression of firefly-luciferase, Hep G2; format: cell-based
Outline: (§1)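 Cells were transfected with firefly-luciferase-encoding RNA-LNPs at 100 ng/mL. After 72 hours they were washed and lysed, and luciferase activity in the lysates was read by luminometry.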

[2] = system: MCP-I; test: MCP-I cytokine elevation in serum; format: in vivo; details: cirRNA (SEQ ID NO: 1) LNPs, mice
Method: 6-8 week old, female BALB/C mice were injected with 0.5 mg*kg-1 of RNA LNPs by intravenous injection. At 2 and 24 hours post injection, animals were bled and sera concentrations of MCP-I were determined by an immunoassay (Luminex).

[3] = system: Aspartate Aminotransferase (AST); test: Liver enzyme elevation in serum, AST; format: in vivo; details: cirRNA (SEQ ID NO: 1) LNPs, BALB/C mice, intravenous 0.5 MPK
Method: (§2) 6-8 week old, female BALB/C mice were injected with 0.5 mg*kg-1 of RNA LNPs by intravenous injection. At 2 and 24 hours post injection, animals were bled and sera concentrations of Alanine Aminotransferase (ALT) and Aspartate Aminotransferase (AST) were determined by a blood chemistry analyzer.

[4] = system: RAW 264.7 cells; test: In vitro expression of firefly-luciferase, RAW 264.7; format: cell-based
Outline: as §1

[5] = system: BALB/C mice; test: In vivo expression, whole-body luminescence (IVIS)
Method: 6-8 week old, female BALB/C mice were injected with 0.05 mg*kg-1 of RNA-LNPs encoding for firefly-luciferase by intravenous injection. At 6 hours post injection, animals were intraperitoneally injected with 15 mg/ml of Luciferin substrate and whole-body luminescence was determined by a bioluminescent in vivo imaging system (IVIS).

[6] = system: RAW 264.7 cells; test: In vitro toxicity (CellTiter-Glo cell viability), RAW 264.7; format: cell-based;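 also: percent of untreated cells luminescence signal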
Outline: (§3)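 Viability after a 72 h incubation with 1 μg/mL RNA-LNP formulations was assessed luminometrically using CellTiter-Glo.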

[7] = system: BALB/C mice; test: Local tolerance determination by footpad injection; format: in vivo; details: cirRNA (SEQ ID NO: 1) LNP, 0.175 mg*kg-1 subcutaneous into the footpad, 24 hours post minus prior
Method: 6-8 week old, female BALB/C mice were injected with 0.175 mg*kg-1 RNA LNPs by subcutaneous injection into the footpad. Prior to, and 24 hours post injections, injected footpad thickness was determined by a caliper.

[8] = system: Alanine Aminotransferase (ALT); test: Liver enzyme elevation in serum, ALT; format: in vivo; details: cirRNA (SEQ ID NO: 1) LNPs, BALB/C mice, intravenous 0.5 MPK
Method: as §2

[9] = RNA encapsulation efficacy by Quant-IT Ribogreen kit; format: physicochemical; details: for Encapsulation Efficiency %: LNP with cirRNA (SEQ ID NO: 1); for Encapsulation Efficiency: LNP with mRNA (SEQ ID NO: 2)
Outline: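 LNPs of ionizable lipid/DSPC/cholesterol/DMG-PEG 2000 (50:10:38.5:1.5) made by microfluidic mixing of luciferase circRNA or mRNA in pH 4.5 acetate with lipids in ethanol (3:1, 12 ml/min), ionizable lipid:nucleotide 15 or 6, then dialyzed against PBS. Size, PDI (DLS) and zeta potential on Zetasizer; encapsulation by Ribogreen ± Triton X-100.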

[10] = LNP zeta potential (Zetasizer); format: physicochemical
Outline: (§4)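 Ribogreen fluorescence with and without Triton X-100 gave encapsulation as 100% − (intact/lysed) signal; DLS size, PDI and zeta potential measured on a Zetasizer. Particles: 50:10:38.5:1.5 lipid mix, luciferase circRNA or mRNA, lipid:nucleotide 15 or 6, microfluidic assembly at pH 4.5, PBS-dialyzed.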

[11] = LNP size and polydispersity index (PDI) by dynamic light scattering; format: physicochemical; details: for Size: in nm (unit assumed)
Outline: as §4

[12] = system: Hep G2 cells; test: In vitro toxicity (CellTiter-Glo cell viability), Hep G2; format: cell-based;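 also: percent of untreated cells luminescence signal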
Outline: as §3

[13] = cirRNA (SEQ ID NO: 1) LNPs, firefly-luciferase luminescence, Hep G2 cells
[14] = mRNA (SEQ ID NO: 2) LNP, 100 ng/mL, 72 hours post transfection, luciferase activity
[15] = cirRNA (SEQ ID NO: 1) LNPs, firefly-luciferase luminescence, RAW 264.7 cells
[16] = cirRNA (SEQ ID NO: 1) LNPs, BALB/C mice
[17] = mRNA (SEQ ID NO: 2) LNP, 0.05 mg*kg-1 intravenous, 6 hours post injection
[18] = cirRNA (SEQ ID NO: 1) LNPs, RAW 264.7 cells
[19] = mRNA (SEQ ID NO: 2) LNP, 1 μg/mL, 72 hours post transfection
[20] = cirRNA (SEQ ID NO: 1) LNPs, Hep G2 cells

Row | SMILES | In vitro Expression HepG2 [1, 13] | In vitro Expression HepG2 [1, 14] | MCP-I in Sera 2 hours After 0.5 MPK Injection [2] | AST in Sera (IU/L) 2 hours After 0.5 MPK Injection [3] | AST in Sera (IU/L) 24 hours After 0.5 MPK Injection [3] | In vitro Expression RAW [4, 15] | In vitro Expression RAW [4, 14] | In vivo Expression (Whole Body) [5, 16] | In vivo Expression (Whole Body) [5, 17] | In vitro Viability RAW [6, 18] | In vitro Viability RAW [6, 19] | Footpad Thickness (24 h−0 h, mm) [7] | ALT in Sera (IU/L) 2 hours After 0.5 MPK Injection [8] | ALT in Sera (IU/L) 24 hours After 0.5 MPK Injection [8] | Encapsulation Efficiency % [9] | Encapsulation Efficiency [9] | Zeta (mV) ([10]; LNP with cirRNA (SEQ ID NO: 1)) | Zeta (mV) ([10]; LNP with mRNA (SEQ ID NO: 2)) | PDI ([11]; LNP with cirRNA (SEQ ID NO: 1)) | Size ([11]; LNP with cirRNA (SEQ ID NO: 1)) | also measured
1 | CCCCCCCCC(CCCCCCCC)OC(=O)CCCCCCCN(CCCCCCCCOC(=O)C(CCCCCC)CCCCCCCC)CCOC(=O)NCCN(C)C (stereo not shown) [Lipid 66, heptadecan-9-yl 10-(8-((2-hexyldecanoyl)oxy)octyl)-2-methyl-6-oxo-7-oxa-2,5,10-triazaoctadecan-18-oate] | 9.78E+07 | 1.59E+08 | 7911.52 pg/mL | 176.40 IU/L | 148.60 IU/L | 9.90E+06 | 6.79E+06 | 2.03E+09 | 3.50E+09 | 100% | 72% | 1.43 mm | 51.97 IU/L | 63.6 IU/L | 96% | 88.25% | −2.1 mV | 2.213 mV | 0.05 | 86.66 | MCP-I in Sera 24 hours After 0.5 MPK Injection [2]: 448.43 pg/mL; PDI ([11]; LNP with mRNA (SEQ ID NO: 2)): 0.09823; Size ([11]; LNP with mRNA (SEQ ID NO: 2)): 75.46; In vitro Viability HepG2 [12, 20]: 93%; In vitro Viability HepG2 [12, 19]: 82%
2 | CCCCC/C=C\C/C=C\CCCCCCCCN(CCCCCCCC/C=C\CCCCCCCC)CCOC(=O)NCc1ncc[nH]1 [Lipid 68, 2-(((Z)-octadec-9-en-1-yl)((9Z,12Z)-octadeca-9,12-dien-1-yl)amino)ethyl ((1H-imidazol-2-yl)methyl)carbamate] | 2.63E+06 | 3.74E+03 | 129.34 pg/mL | 81.27 IU/L | 60.20 IU/L | 6.86E+05 | 5.58E+02 | 1.34E+08 | 1.54E+08 | 67% | 104% | 1.00 mm | 40.77 IU/L | 33.37 IU/L | 92% | 88% | −0.647 mV | 5.641 mV | 0.12 | 57.94 | PDI ([11]; LNP with mRNA (SEQ ID NO: 2)): 0.1057; Size ([11]; LNP with mRNA (SEQ ID NO: 2)): 61.9; In vitro Viability HepG2 [12, 20]: 99%; In vitro Viability HepG2 [12, 19]: 100%
3 | CCCCC/C=C\C/C=C\CCCCCCCCN(CCCCCC(=O)OCC(CCCCCCCC)CCCCCCCCCC)CCOC(=O)NCCN(C)C (stereo not shown) [Lipid 75, 2-octyldodecyl 2-methyl-10-((9Z,12Z)-octadeca-9,12-dien-1-yl)-6-oxo-7-oxa-2,5,10-triazahexadecan-16-oate] | 1.94E+06 | 9.23E+06 | 8335.00 pg/mL | 279.87 IU/L | 94.83 IU/L | 2.08E+06 | 2.18E+06 | 9.85E+08 | 4.22E+08 | 75% | 96% | 0.85 mm | 111.37 IU/L | 48.97 IU/L | 97% | 89% | 1.59 mV | 13.66 mV | 0.13 | 91.13 | MCP-I in Sera 24 hours After 0.5 MPK Injection [2]: 93.14 pg/mL; PDI ([11]; LNP with mRNA (SEQ ID NO: 2)): 0.1903; Size ([11]; LNP with mRNA (SEQ ID NO: 2)): 70.28; In vitro Viability HepG2 [12, 20]: 85%; In vitro Viability HepG2 [12, 19]: 95%
4 | CCCCC/C=C\C/C=C\CCCCCCCCN(CCCCCC(=O)OCCCCCCCCCCC)CCOC(=O)NCc1ncc[nH]1 [Lipid 90, undecyl 6-((2-((((1H-imidazol-2-yl)methyl)carbamoyl)oxy)ethyl)((9Z,12Z)-octadeca-9,12-dien-1-yl)amino)hexanoate] | 1.27E+05 | 2.16E+05 | 153.05 pg/mL | 77.50 IU/L | 64.70 IU/L | 8.50E+04 | 1.21E+05 | 8.80E+07 | 2.73E+07 | 24% | 96% | 0.20 mm | 40.57 IU/L | 37.87 IU/L | 87% | 88% | 1.34 mV | 7.6 mV | 0.06 | 67.68 | MCP-I in Sera 24 hours After 0.5 MPK Injection [2]: 33.08 pg/mL; PDI ([11]; LNP with mRNA (SEQ ID NO: 2)): 0.06127; Size ([11]; LNP with mRNA (SEQ ID NO: 2)): 65.54; In vitro Viability HepG2 [12, 20]: 95%; In vitro Viability HepG2 [12, 19]: 85%
5 | CCCCC/C=C\C/C=C\CCCCCCCCN(CCCCCCCC(=O)OC(CCCCCCCC)CCCCCCCC)CCOC(=O)NCCN1CCCCC1 [Lipid 127, heptadecan-9-yl 8-(((9Z,12Z)-octadeca-9,12-dien-1-yl)(2-(((2-(piperidin-1-yl)ethyl)carbamoyl)oxy)ethyl)amino)octanoate] | 2.14E+06 | 1.75E+06 | 301.91 pg/mL | 161.17 IU/L | 91.53 IU/L | 4.87E+06 | 5.53E+05 | 1.14E+09 | 8.69E+07 | 76% | 109% | 0.94 mm | 74.17 IU/L | 54.90 IU/L | 95% | 87% | −3.13 mV | −1.439 mV | 0.04 | 71.42 | MCP-I in Sera 24 hours After 0.5 MPK Injection [2]: 128.65 pg/mL; PDI ([11]; LNP with mRNA (SEQ ID NO: 2)): 0.1822; Size ([11]; LNP with mRNA (SEQ ID NO: 2)): 57.31; In vitro Viability HepG2 [12, 20]: 99%; In vitro Viability HepG2 [12, 19]: 100%
